This is an account of results in patent publication US9776995B2, “Bicyclic sulfonamide compounds as sodium channel inhibitors” (AMGEN INC., priority 2013, dated 2017).

Each structure is given as a SMILES string. pIC50: −log10 of the molar value.

Nav 1.7, sequence (Q15858 whole entry): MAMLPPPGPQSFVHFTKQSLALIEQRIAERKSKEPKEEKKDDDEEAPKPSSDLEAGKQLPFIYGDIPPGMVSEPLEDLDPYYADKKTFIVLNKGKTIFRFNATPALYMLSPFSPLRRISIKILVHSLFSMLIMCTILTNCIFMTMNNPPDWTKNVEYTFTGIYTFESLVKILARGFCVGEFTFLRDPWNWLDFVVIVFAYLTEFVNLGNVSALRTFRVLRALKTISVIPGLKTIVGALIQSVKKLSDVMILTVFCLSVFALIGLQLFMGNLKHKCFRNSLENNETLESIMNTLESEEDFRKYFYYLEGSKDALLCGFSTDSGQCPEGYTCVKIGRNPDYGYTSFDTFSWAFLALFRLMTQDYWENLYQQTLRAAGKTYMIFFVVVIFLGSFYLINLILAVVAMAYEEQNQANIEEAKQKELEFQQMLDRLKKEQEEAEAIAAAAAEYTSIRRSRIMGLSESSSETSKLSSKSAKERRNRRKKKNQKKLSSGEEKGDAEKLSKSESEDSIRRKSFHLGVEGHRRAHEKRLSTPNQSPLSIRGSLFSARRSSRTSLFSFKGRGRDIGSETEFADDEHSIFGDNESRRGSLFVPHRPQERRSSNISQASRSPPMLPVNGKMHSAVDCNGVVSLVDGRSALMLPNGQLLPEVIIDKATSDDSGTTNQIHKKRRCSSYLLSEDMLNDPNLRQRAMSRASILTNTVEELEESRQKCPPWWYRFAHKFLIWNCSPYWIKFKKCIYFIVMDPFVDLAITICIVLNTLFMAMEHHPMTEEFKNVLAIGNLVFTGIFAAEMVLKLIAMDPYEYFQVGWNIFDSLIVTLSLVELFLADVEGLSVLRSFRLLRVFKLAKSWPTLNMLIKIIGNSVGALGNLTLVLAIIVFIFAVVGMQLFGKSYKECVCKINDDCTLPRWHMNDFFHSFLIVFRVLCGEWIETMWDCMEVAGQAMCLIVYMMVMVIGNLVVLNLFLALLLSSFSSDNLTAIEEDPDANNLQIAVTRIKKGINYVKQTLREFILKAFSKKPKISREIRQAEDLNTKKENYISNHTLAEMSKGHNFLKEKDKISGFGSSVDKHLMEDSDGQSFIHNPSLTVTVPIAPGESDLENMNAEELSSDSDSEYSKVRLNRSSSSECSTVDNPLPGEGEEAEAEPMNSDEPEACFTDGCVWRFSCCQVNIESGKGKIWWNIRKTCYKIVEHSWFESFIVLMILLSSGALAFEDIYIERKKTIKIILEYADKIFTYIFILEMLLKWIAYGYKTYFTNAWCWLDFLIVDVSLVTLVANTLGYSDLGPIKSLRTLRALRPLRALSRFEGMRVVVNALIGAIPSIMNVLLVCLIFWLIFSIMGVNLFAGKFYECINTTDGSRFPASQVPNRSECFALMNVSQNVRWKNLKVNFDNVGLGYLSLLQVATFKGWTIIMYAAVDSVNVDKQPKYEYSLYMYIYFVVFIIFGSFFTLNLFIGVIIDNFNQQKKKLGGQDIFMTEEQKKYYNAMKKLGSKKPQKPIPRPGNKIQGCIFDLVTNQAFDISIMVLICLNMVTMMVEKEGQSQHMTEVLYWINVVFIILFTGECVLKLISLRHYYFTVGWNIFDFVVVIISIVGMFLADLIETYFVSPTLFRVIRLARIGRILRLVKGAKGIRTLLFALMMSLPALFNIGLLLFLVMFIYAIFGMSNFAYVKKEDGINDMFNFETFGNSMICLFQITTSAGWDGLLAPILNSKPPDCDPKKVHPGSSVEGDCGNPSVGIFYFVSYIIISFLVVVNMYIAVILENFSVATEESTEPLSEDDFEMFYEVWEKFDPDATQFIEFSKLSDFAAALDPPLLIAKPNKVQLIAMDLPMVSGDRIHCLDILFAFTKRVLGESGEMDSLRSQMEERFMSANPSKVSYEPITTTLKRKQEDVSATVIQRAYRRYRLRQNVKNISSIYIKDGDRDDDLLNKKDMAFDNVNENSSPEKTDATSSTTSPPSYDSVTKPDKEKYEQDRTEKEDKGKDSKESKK

One assay has as its target Nav 1.7 (Homo sapiens (Human), UniProt Q15858). Briefly: Nav 1.7 in vitro PX assay (PatchXpress whole cell voltage clamp).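 Also: holding potential set for 20 to 50% inactivation, sodium current evoked by a 20 ms step to −10 mV, peak current inhibition read after compound exposure, 3–5 cells per concentration.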 It is filed as cell-based.
Details: not given
Compound `COc1cc(C(F)(F)F)ccc1C1c2ccc(S(=O)(=O)Nc3ncns3)cc2CCN1C(C)=O` (stereo not drawn) [Example 51, 2-ACETYL-1-(2-METHOXY-4-(TRIFLUOROMETHYL)PHENYL)-N-(1,2,4-THIADIAZOL-5-YL)-1,2,3,4-TETRAHYDROISOQUINOLINE-6-SULFONAMIDE] gave a pIC50 of 6.65.
For `COc1cc(C(F)(F)F)c(Cl)cc1-c1ncnc2cc(S(=O)(=O)Nc3ccon3)ccc12` [Example 59, 4-(5-CHLORO-2-METHOXY-4-(TRIFLUOROMETHYL)PHENYL)-N-(ISOXAZOL-3-YL)QUINAZOLINE-7-SULFONAMIDE], the negative-log IC50 (pIC50) is 6.74.

Still in this assay, the particulars now being: HEK 293 cells stably transfected with human Nav1.7; PatchXpress; partially inactivated state.
`COc1cc(-c2cccc(F)c2)c(Cl)cc1-c1c(O)cnc2cc(S(=O)(=O)Nc3ccon3)ccc12` (atropisomer, axis not shown; (M)) [Example 337, (M)-4-(2-chloro-3′-fluoro-5-methoxy-[1,1′-biphenyl]-4-yl)-3-hydroxy-N-(isoxazol-3-yl)quinoline-7-sulfonamide] gave a pIC50 of 7.15.
The compound `COc1cc(-c2cccc(F)c2)c(Cl)cc1-c1c(OC)cnc2cc(S(=O)(=O)Nc3ccon3)ccc12` (atropisomer, axis not shown; (M)) [Example 339, (M)-4-(2-chloro-3′-fluoro-5-methoxy-[1,1′-biphenyl]-4-yl)-N-(isoxazol-3-yl)-3-methoxyquinoline-7-sulfonamide] showed a pIC50 of 6.20.
The same measure, in the same setting: for `COc1cc(-c2cccc(F)c2)c(Cl)cc1-c1c(C)nnc2cc(S(=O)(=O)Nc3ccon3)ccc12` (atropisomer, axis not shown; (M)) [Example 441, (M)-4-(2-chloro-3′-fluoro-5-methoxy-[1,1′-biphenyl]-4-yl)-N-(isoxazol-3-yl)-3-methylcinnoline-7-sulfonamide] the value was 7.28; for `CCc1nnc2cc(S(=O)(=O)Nc3ccon3)ccc2c1-c1cc(Cl)c(-c2cccc(F)c2)cc1OC` (atropisomer, axis not shown; (M)) [Example 443, (M)-4-(2-chloro-3′-fluoro-5-methoxy-[1,1′-biphenyl]-4-yl)-3-ethyl-N-(isoxazol-3-yl)cinnoline-7-sulfonamide], 7.06; for `COc1cc(-c2cccc(C(F)(F)F)c2)c(F)cc1-c1c2ccc(S(=O)(=O)Nc3ccon3)cc2cc(=O)n1C` (atropisomer, axis not shown; (M)) [Example 552, (M)-1-(2-fluoro-5-methoxy-3′-(trifluoromethyl)-4-biphenylyl)-N-3-isoxazolyl-2-methyl-3-oxo-2,3-dihydro-6-isoquinolinesulfonamide], 5.90.
Take `COc1cc(-c2cccc(F)c2)c(Cl)cc1-c1c(C)ncc2cc(S(=O)(=O)Nc3ccon3)ccc12` (atropisomer, axis not shown; (P)) [Example 318, (P)-4-(2-chloro-3′-fluoro-5-methoxy-4-biphenylyl)-N-3-isoxazolyl-3-methyl-7-isoquinolinesulfonamide]: the negative-log IC50 (pIC50) is 5.86.
Still for that read-out and setting: for `COc1cc(-c2cccc(F)c2)c(Cl)cc1-c1c(C)cnc2cc(S(=O)(=O)Nc3ccon3)ccc12` (atropisomer, axis not shown; (P)) [Example 331, (P)-4-(2-chloro-3′-fluoro-5-methoxy-[1,1′-biphenyl]-4-yl)-N-(isoxazol-3-yl)-3-methylquinoline-7-sulfonamide] the value was 4.98; for `CCc1cnc2cc(S(=O)(=O)Nc3ccon3)ccc2c1-c1cc(Cl)c(-c2cccc(F)c2)cc1OC` (atropisomer, axis not shown; (P)) [Example 333, (P)-4-(2-chloro-3′-fluoro-5-methoxy-[1,1′-biphenyl]-4-yl)-3-ethyl-N-(isoxazol-3-yl)quinoline-7-sulfonamide], 6.23; for `COc1cc(-c2cccc(F)c2)c(Cl)cc1-c1c(C#N)cnc2cc(S(=O)(=O)Nc3ccon3)ccc12` (atropisomer, axis not shown; (P)) [Example 335, (P)-4-(2-chloro-3′-fluoro-5-methoxy-[1,1′-biphenyl]-4-yl)-3-cyano-N-(isoxazol-3-yl)quinoline-7-sulfonamide], 6.95.
Same read-out and setting: then `COc1cc(-c2cccc(F)c2)c(Cl)cc1-c1c(O)cnc2cc(S(=O)(=O)Nc3ccon3)ccc12` (atropisomer, axis not shown; (P)) [Example 338, (P)-4-(2-chloro-3′-fluoro-5-methoxy-[1,1′-biphenyl]-4-yl)-3-hydroxy-N-(isoxazol-3-yl)quinoline-7-sulfonamide], with 7.39; and `COc1cc(-c2cccc(F)c2)c(Cl)cc1-c1c(OC)cnc2cc(S(=O)(=O)Nc3ccon3)ccc12` (atropisomer, axis not shown; (P)) [Example 340, (P)-4-(2-chloro-3′-fluoro-5-methoxy-[1,1′-biphenyl]-4-yl)-N-(isoxazol-3-yl)-3-methoxyquinoline-7-sulfonamide], with 7.08.
The compound `COc1cc(-c2cccc(F)c2)c(Cl)cc1-c1c(C)nnc2cc(S(=O)(=O)Nc3ccon3)ccc12` (atropisomer, axis not shown; (P)) [Example 442, (P)-4-(2-chloro-3′-fluoro-5-methoxy-[1,1′-biphenyl]-4-yl)-N-(isoxazol-3-yl)-3-methylcinnoline-7-sulfonamide] gave a pIC50 of 6.60.
On the same count and under the same terms, then `CCc1nnc2cc(S(=O)(=O)Nc3ccon3)ccc2c1-c1cc(Cl)c(-c2cccc(F)c2)cc1OC` (atropisomer, axis not shown; (P)) [Example 444, (P)-4-(2-chloro-3′-fluoro-5-methoxy-[1,1′-biphenyl]-4-yl)-3-ethyl-N-(isoxazol-3-yl)cinnoline-7-sulfonamide], with 5.93; and `COc1cc(-c2cccc(C(F)(F)F)c2)c(F)cc1-c1c2ccc(S(=O)(=O)Nc3ccon3)cc2cc(=O)n1C` (atropisomer, axis not shown; (P)) [Example 551, (P)-1-(2-fluoro-5-methoxy-3′-(trifluoromethyl)-4-biphenylyl)-N-3-isoxazolyl-2-methyl-3-oxo-2,3-dihydro-6-isoquinolinesulfonamide], with 7.55.

Staying with this assay, now noted: PatchXpress (PX).
On to `COc1cc(-c2cccc(F)c2)ccc1[C@@H]1c2ccc(S(=O)(=O)Nc3ccon3)cc2CCN1C(C)=O` [Example 53-A, (S)-2-ACETYL-1-(3′-FLUORO-3-METHOXY-[1,1′-BIPHENYL]-4-YL)-N-(ISOXAZOL-3-YL)-1,2,3,4-TETRAHYDROISOQUINOLINE-6-SULFONAMIDE], for which the pIC50 is 5.96.
For the compound `COc1cc(-c2cccc(F)c2)c(Cl)cc1-c1nccc2cc(S(=O)(=O)Nc3cscn3)ccc12` [Example 54, 1-(2-CHLORO-3′-FLUORO-5-METHOXY-[1,1′-BIPHENYL]-4-YL)-N-(THIAZOL-4-YL)ISOQUINOLINE-6-SULFONAMIDE], the pIC50 is 6.31.
Same read-out and setting: for `COc1cc(-c2cccc(F)c2)c(Cl)cc1-c1nnc(OC)c2cc(S(=O)(=O)Nc3ccon3)ccc12` [Example 55, 1-(2-CHLORO-3′-FLUORO-5-METHOXY-[1,1′-BIPHENYL]-4-YL)-N-(ISOXAZOL-3-YL)-4-METHOXYPHTHALAZINE-6-SULFONAMIDE] the value was 7.49; for `COc1cn(-c2cc(F)cc(F)c2)c(=O)cc1-c1nccc2cc(S(=O)(=O)Nc3ccon3)ccc12` [Example 56, 1-(1-(3,5-DIFLUOROPHENYL)-5-METHOXY-2-OXO-1,2-DIHYDROPYRIDIN-4-YL)-N-(ISOXAZOL-3-YL)ISOQUINOLINE-6-SULFONAMIDE], 4.93; for `COc1cc(C(F)(F)F)c(C)cc1-c1nccc2cc(S(=O)(=O)Nc3ccon3)ccc12` [Example 60, N-(ISOXAZOL-3-YL)-1-(2-METHOXY-5-METHYL-4-(TRIFLUOROMETHYL)PHENYL)ISOQUINOLINE-6-SULFONAMIDE], 6.72.
On the same count and under the same terms, for `COc1cc(-c2cc(F)cc(F)c2)c(C)cc1-c1ncnc2cc(S(=O)(=O)Nc3ccon3)ccc12` [Example 61, 4-(3′,5′-DIFLUORO-5-METHOXY-2-METHYL-[1,1′-BIPHENYL]-4-YL)-N-(ISOXAZOL-3-YL)QUINAZOLINE-7-SULFONAMIDE] the value was 7.30.
Same read-out and setting: then `COc1cc(-c2ccc(F)c(F)c2)c(C)cc1-c1nccc2cc(S(=O)(=O)Nc3ccon3)ccc12` [Example 62, 1-(3′,4′-DIFLUORO-5-METHOXY-2-METHYL-[1,1′-BIPHENYL]-4-YL)-N-(ISOXAZOL-3-YL)ISOQUINOLINE-6-SULFONAMIDE], with 7.42; and `COc1cc(-c2ccc(Cl)c(C)c2)c(Cl)cc1-c1nncc2cc(S(=O)(=O)Nc3ccon3)ccc12` [Example 245, 1-(2,4′-dichloro-5-methoxy-3′-methyl-4-biphenylyl)-N-3-isoxazolyl-6-phthalazinesulfonamide], with 7.81.
`COc1cc(-c2ccc(C)c(Cl)c2)c(Cl)cc1-c1nncc2cc(S(=O)(=O)Nc3ccon3)ccc12` [Example 246, 1-(2,3′-dichloro-5-methoxy-4′-methyl-4-biphenylyl)-N-3-isoxazolyl-6-phthalazinesulfonamide] showed a pIC50 of 7.76.
Take `COc1cc(Cl)c(C)cc1-c1ncnc2cc(S(=O)(=O)Nc3ccon3)ccc12` [Example 247, 4-(4-chloro-2-methoxy-5-methylphenyl)-N-3-isoxazolyl-7-quinazolinesulfonamide]: the pIC50 is 6.61.
On the same count and under the same terms, then `COc1cc(Cl)c(C)cc1-c1nccc2cc(S(=O)(=O)Nc3ccon3)ccc12` [Example 248, 1-(4-chloro-2-methoxy-5-methylphenyl)-N-3-isoxazolyl-6-isoquinolinesulfonamide], with 6.73.

Staying with this assay, now noted: in-vitro Nav 1.7 PX (PatchXpress).
In turn, `COc1cc(-c2cccc(F)c2)c(Cl)cc1-c1cn(C)c2cc(S(=O)(=O)Nc3ccon3)ccc12` [Example 57, 3-(2-CHLORO-3′-FLUORO-5-METHOXY-[1,1′-BIPHENYL]-4-YL)-N-(ISOXAZOL-3-YL)-1-METHYL-1H-INDOLE-6-SULFONAMIDE] had a pIC50 of 4.89.
On the same count and under the same terms, then `COc1cc(-c2ccc(F)c(C3CC3)c2)c(C)cc1-c1ncnc2cc(S(=O)(=O)Nc3ccon3)ccc12` [Example 63, 4-(3′-CYCLOPROPYL-4′-FLUORO-5-METHOXY-2-METHYL-[1,1′-BIPHENYL]-4-YL)-N-(ISOXAZOL-3-YL)QUINAZOLINE-7-SULFONAMIDE], with 7.47.
Compound `COc1nc(-c2cc(F)cc(F)c2)c(C#N)cc1-c1cccc2cc(S(=O)(=O)Nc3ccncn3)ccc12` [Example 64] gave a negative-log IC50 (pIC50) of 7.04.

As a reminder, the pIC50 is the negative decadic logarithm of the IC50, by convention in mol/L. A low value points to a high IC50.
